Experimental data taken from patent US20100223737A1, “ORGANIC CATALYST WITH ENHANCED ENZYME COMPATIBLITY” (priority 2009, published 2010).

Assays:
Type in all cases: biochemical
[1] = system: Termamyl, Duramyl and Natalase; assay: Organic Catalyst/Enzyme Compatibility Test, average of the three enzymes; settings: ECV=(ECVter+ECVdur+ECVnat)/3; [Peracetic Acid]=5.0 ppm; [organic catalyst]=0.5 ppm
[2] = system: Duramyl; assay: Organic Catalyst/Enzyme Compatibility Test (alpha amylase activity assay), Duramyl; settings: (Ac/Ab)x100; [Peracetic Acid]=5.0 ppm; [organic catalyst]=0.5 ppm; 40° C.; sample at 7 minutes 45 seconds
[3] = system: Natalase; assay: Organic Catalyst/Enzyme Compatibility Test (alpha amylase activity assay), Natalase; settings: (Ac/Ab)x100; [Peracetic Acid]=5.0 ppm; [organic catalyst]=0.5 ppm; 40° C.; sample at 7 minutes 45 seconds

Substance | Enzyme Compatibility Values ECV [1] | Enzyme Compatibility Values ECVdur [2] | Enzyme Compatibility Values ECVnat [3]
Sulfuric acid mono-[2-(3,4-dihydro-isoquinolin-2-yl)-1-(2-butyloctyloxymethyl)-ethyl]ester, internal salt [Entry 4] | 101 | 101 | 102
Sulfuric acid mono-[2-(3,4-dihydro-isoquinolin-2-yl)-1-(2-propylheptyloxymethyl)-ethyl]ester, internal salt [Entry 3] | 99 | 101 | 99
